Source: patent US12285012B2, “Compositions comprising pyridine carboxylate herbicides with acetolactate synthase (ALS) inhibitor herbicides” (Corteva Agriscience LLC, priority 2018, dated 2025)
Values joined by “and” are separate entries in the source; they are usually repeats but may differ in a detail not shown here. Equal values may be shown once.

Key:
[1] = test system: rice (ORYSA, Oryza sativa); assay: Greenhouse postemergence crop phytotoxicity; assay type: in vivo; details: Compound A 10 g/ha; safener mefenpyr-diethyl
Method: (§1) Seeds of the desired test plant species were planted in a 90:10% v/v (volume/volume) mixture of PRO-MIX® BX (Premier Tech Horticulture, Quakertown, PA, USA) and PROFILE® GREENS GRADE™ (Profile Products LLC, Buffalo Grove, IL, USA) planting mixture, which typically has a pH of 5.2 to 6.2 and an organic matter content of at least 50 percent, in plastic pots with a surface area of 103.2 square centimeters (cm^2). […] The plants were grown for 7-36 days (d) in a greenhouse with an approximate 14-hour (h) photo-period which was maintained at about 23° C. during the day and 22° C. during the night. Nutrients and water were added on a regular basis and supplemental lighting was provided with overhead metal halide 1000-Watt lamps as necessary. The plants were employed for testing when they reached the second or third true leaf stage.
(§2) Emulsifiable concentrates of each of each pyridine carboxylate herbicide (Compound A or Compound B) were prepared at 100 grams acid equivalent per liter (g ae/L). The emulsifiable concentrates also included a safener, cloquintocet-mexyl, at 120 grams active ingredient per liter (g ai/L), unless otherwise noted below. An aliquot of each emulsifiable concentrate was placed in a 25 mL glass vial and diluted with an aqueous mixture of 1.25% (v/v) ACTIROB® B esterified rapeseed oil (Bayer Crop Science, Research Triangle Park, NC, USA) or MSO® Concentrate with LECI-TECH® methylated soybean oil (Loveland Products, Loveland, CO, USA) to obtain concentrated stock solutions at the highest application rate for each herbicide, based upon a 12 milliliter (mL) application volume at a rate of 187 liters per hectare (L/ha). The concentrated stock solutions were further diluted with an aqueous mixture of 1.25% v/v ACTIROB® B or MSO® Concentrate with LECI-TECH® to obtain stock solutions at reduced application rates for each herbicide. Spray solutions of the herbicide combinations (Compound A or Compound B plus ALS herbicide) were prepared by adding weighed amounts or aliquots of the ALS herbicides to the stock solutions of Compound A or Compound B to form 12-mL spray solutions in two- or three-way combinations. […]
(§3) The treated plants and control plants were placed in a greenhouse as described above and watered by sub-irrigation to prevent wash-off of the test compounds. After 20-22 d, the condition of the test plants as compared with that of the control plants was determined visually and scored on a scale of 0 to 100 percent where 0 corresponds to no injury and 100 corresponds to complete kill.

maize (ZEAMX, Zea mays) = assay: Greenhouse postemergence crop phytotoxicity; assay type: in vivo; details: Compound A 10 g/ha; safener mefenpyr-diethyl
Method: as §1, §2, §3

[2] = test system: spring rape (BRSNN, Brassica napus); assay: Greenhouse postemergence herbicidal effect; assay type: in vivo
Outline: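 Injury was rated visually after 20-22 d on a 0 (none) to 100% (complete kill) scale relative to solvent-sprayed controls, with sub-irrigation to avoid wash-off. Rates were given in g ae/ha or g ai/ha depending on component.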

[3] = test system: common sunflower (HELAN, Helianthus annuus); assay: Greenhouse postemergence herbicidal effect; assay type: in vivo
Outline: (§4)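 Greenhouse plants at the second–third true leaf received overhead sprays (187 L/ha) of herbicide mixtures containing safener and oil adjuvant. Percent control or crop injury was judged by eye 20–22 d later on a 0–100 scale.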

[4] = test system: ivyleaf morningglory (IPOHE, Ipomoea hederacea); assay: Greenhouse postemergence herbicidal effect; assay type: in vivo
Outline: as §4

[5] = test system: velvetleaf (ABUTH, Abutilon theophrasti); assay: Greenhouse postemergence herbicidal effect; assay type: in vivo
Outline: as §4

[6] = test system: blackgrass (ALOMY, Alopecurus myosuroides); assay: Greenhouse postemergence herbicidal effect; assay type: in vivo; details: Compound A 10 g/ha; safener mefenpyr-diethyl
Outline: as §4

[7] = test system: broad-leaf dock (RUMOB, Rumex obtusifolius); assay: Greenhouse postemergence herbicidal effect; assay type: in vivo; details: for Obs % visual injury: RUMOB
Outline: as §4

[8] = test system: wild oat (AVEFA, Avena fatua); assay: Greenhouse postemergence herbicidal effect; assay type: in vivo
Outline: as §4

[9] = test system: soybean (GLXMA, Glycine max); assay: Greenhouse postemergence herbicidal effect; assay type: in vivo
Outline: as §4

[10] = test system: large crabgrass (DIGSA, Digitaria sanguinalis); assay: Greenhouse postemergence herbicidal effect; assay type: in vivo; details: for Obs % visual injury: DIGSA
Outline: as §4

winter wheat (TRZAW) = assay: Greenhouse postemergence crop phytotoxicity; assay type: in vivo, Triticum aestivum
Source text: (§5) Seeds of the desired test plant species were planted in a 90:10% v/v (volume/volume) mixture of PRO-MIX® BX (Premier Tech Horticulture, Quakertown, PA, USA) and PROFILE® GREENS GRADE™ (Profile Products LLC, Buffalo Grove, IL, USA) planting mixture, which typically has a pH of 5.2 to 6.2 and an organic matter content of at least 50 percent, in plastic pots with a surface area of 103.2 square centimeters (cm^2). In some aspects, to ensure good germination and healthy plants, a fungicide treatment and/or other chemical or physical treatment was applied. The plants were grown for 7-36 days (d) in a greenhouse with an approximate 14-hour (h) photo-period which was maintained at about 23° C. during the day and 22° C. during the night. Nutrients and water were added on a regular basis and supplemental lighting was provided with overhead metal halide 1000-Watt lamps as necessary. The plants were employed for testing when they reached the second or third true leaf stage.
as §2, §3

winter barley (HORVW) = assay: Greenhouse postemergence crop phytotoxicity; assay type: in vivo, Hordeum vulgare
Source text: as §5, §2, §3

[11] = Compound A 10 g/ha, safener mefenpyr-diethyl

N#CCOC(=O)c1nc(-c2ccc3cc[nH]c3c2F)c(F)c(N)c1Cl [Compound A, cyanomethyl 4-amino-3-chloro-5-fluoro-6-(7-fluoro-1H-indol-6-yl)pyridine-2-carboxylate]
% visual injury, Obs [1]: 5% | ORYSA % visual injury Obs [1]: 5% | % visual injury, Obs (maize (ZEAMX, Zea mays)): 5% | ZEAMX % visual injury Obs (maize (ZEAMX, Zea mays)): 5% | % visual injury, Obs ([2]; 10 g/ha): 73% and 70% and 60% | % visual injury, Obs ([2]; BRSNN, Compound A 10 g/ha): 60% | Obs % visual injury ([2]; BRSNN, Compound A 10 g/ha): 55% | Obs % visual injury ([2]; BRSNN, Compound A 10 g/ha (Table 65)): 55% | % visual injury ([2]; Compound A 10 g/ha): 65% | % visual injury Obs ([2]; Compound A 10 g/ha): 60% | % visual injury, Obs ([2]; Compound A 10 g/ha): 55% | BRSNN % visual injury Obs ([2]; Compound A 10 g/ha (Examples 62-63)): 55% | % visual injury, Obs [2, 11]: 78% | BRSNN % visual injury Obs [2, 11]: 78% | % visual injury ([3]; Compound A 10 g/ha): 89% | % visual injury, Obs [3, 11]: 98% | HELAN % visual injury Obs [3, 11]: 98% | % visual injury ([4]; Compound A 10 g/ha): 25% | % visual injury, Obs [4, 11]: 5% | IPOHE % visual injury Obs [4, 11]: 5% | % visual injury, Obs ([5]; 10 g/ha): 48% | % visual injury, Obs [5, 11]: 73% | ABUTH % visual injury Obs [5, 11]: 73% | % visual injury, Obs [6]: 13% | ALOMY % visual injury Obs [6]: 13% | % visual injury, Obs [7, 11]: 20% | RUMOB % visual injury Obs [7, 11]: 20% | % visual injury, Obs ([8]; 10 g/ha): 0% | % visual injury, Obs [8, 11]: 0% | AVEFA % visual injury Obs [8, 11]: 0% | % visual injury, Obs [9, 11]: 95% | GLXMA % visual injury Obs [9, 11]: 95% | % visual injury, Obs ([10]; 10 g/ha): 0% | % visual injury, Obs [10, 11]: 10% | DIGSA % visual injury Obs [10, 11]: 10% | % visual injury (winter wheat (TRZAW); Compound A 10 g/ha): 0% | % visual injury (winter wheat (TRZAW); Compound A 15 g/ha): 0% | % visual injury (winter barley (HORVW); Compound A 10 g/ha): 0% | % visual injury (winter barley (HORVW); Compound A 15 g/ha): 0%

C#CCOC(=O)c1nc(-c2ccc3cc[nH]c3c2F)c(F)c(N)c1Cl [Compound B, propargyl 4-amino-3-chloro-5-fluoro-6-(7-fluoro-1H-indol-6-yl)pyridine-2-carboxylate]
% visual injury, Obs ([3]; 10 g/ha): 100% | % visual injury, Obs ([4]; 10 g/ha): 0% | % visual injury, Obs ([5]; 10 g/ha): 68% | % visual injury, Obs ([7]; 10 g/ha): 15% | Obs % visual injury ([7]; Compound B 5 g/ha): 23% | Obs % visual injury ([7]; Compound B 10 g/ha): 18% | % visual injury, Obs ([9]; 10 g/ha): 73% | Obs % visual injury ([10]; Compound B 5 g/ha): 50% | Obs % visual injury ([10]; Compound B 10 g/ha): 63%

COc1ncc(F)c2nc(S(=O)(=O)Nc3c(F)cccc3F)nn12 [Florasulam, florasulam]
% visual injury (winter wheat (TRZAW); Florasulam 5 g/ha): 0% | % visual injury (winter barley (HORVW); Florasulam 5 g/ha): 0%
